We go through 19 molecules from PubChem BioAssay AID248 (DTP/NCI, 2004).

Molecules are shown by their SMILES. Where “and” joins values, the source holds several entries; their conditions need not be identical. Equal entries are not always repeated. Inconclusive results and toxic doses are left out.

For the assay, the system named is L1210 leukemia ip in BDF1 mice, survival T/C. The experiment in a line: NCI In Vivo Anticancer Drug Screen. Data for tumor model L1210 Leukemia (intraperitoneal) in B6D2F1 (BDF1) mice. To be noted: endpoint: mean survival time, higher = longer survival. An outline of the steps:
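Each compound was tested against a transplantable tumor grown in mice. The endpoint was survival, with treated animals benchmarked against vehicle controls as a simple ratio.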

The mark [1] stands for this setting: dose: 50.0 mg/kg/injection, schedule: Q01DX009 (ip), vehicle: saline.
The mark [2] stands for this setting: dose: 100.0 mg/kg/injection, schedule: Q01DX001 (ip), vehicle: saline.
Where [3] appears, read: dose: 100.0 mg/kg/injection, schedule: Q04DX003 (ip), vehicle: saline.
Setting [4] is: dose: 100.0 mg/kg/injection, schedule: Q01DX009 (ip), vehicle: saline with Tween-80.
Setting [5] is: dose: 200.0 mg/kg/injection, schedule: Q01DX009 (ip), vehicle: saline with Tween-80.
The mark [6] stands for this setting: dose: 400.0 mg/kg/injection, schedule: Q01DX009 (ip), vehicle: saline with Tween-80.
[7] abbreviates: dose: 50.0 mg/kg/injection, schedule: Q01DX009 (ip), vehicle: Klucel (hydroxypropylcellulose) (HPC).
The mark [8] stands for this setting: dose: 100.0 mg/kg/injection, schedule: Q01DX009 (ip), vehicle: Klucel (hydroxypropylcellulose) (HPC).
The mark [9] stands for this setting: dose: 200.0 mg/kg/injection, schedule: Q01DX009 (ip), vehicle: Klucel (hydroxypropylcellulose) (HPC).
Where [10] appears, read: dose: 100.0 mg/kg/injection, schedule: Q04DX003 (ip), vehicle: Klucel (hydroxypropylcellulose) (HPC).
The mark [11] stands for this setting: dose: 200.0 mg/kg/injection, schedule: Q04DX003 (ip), vehicle: Klucel (hydroxypropylcellulose) (HPC).
[12] abbreviates: dose: 400.0 mg/kg/injection, schedule: Q01DX009 (ip), vehicle: Klucel (hydroxypropylcellulose) (HPC).
[13] abbreviates: dose: 400.0 mg/kg/injection, schedule: Q04DX003 (ip), vehicle: Klucel (hydroxypropylcellulose) (HPC).
The mark [14] stands for this setting: dose: 200.0 mg/kg/injection, schedule: Q04DX003 (ip), vehicle: saline.
[15] abbreviates: dose: 400.0 mg/kg/injection, schedule: Q04DX003 (ip), vehicle: saline.
The mark [16] stands for this setting: dose: 50.0 mg/kg/injection, schedule: Q04DX003 (ip), vehicle: Klucel (hydroxypropylcellulose) (HPC).
The mark [17] stands for this setting: dose: 100.0 mg/kg/injection, schedule: Q01DX001 (ip), vehicle: carboxymethylcellulose (CMC).
Where [18] appears, read: dose: 200.0 mg/kg/injection, schedule: Q01DX001 (ip), vehicle: carboxymethylcellulose (CMC).
[19] abbreviates: dose: 400.0 mg/kg/injection, schedule: Q01DX001 (ip), vehicle: carboxymethylcellulose (CMC).

With `CN(C)CCN=C(Nc1ccccn1)Nc1ccccn1`, the T/C is 113 % of control (dose: 12.5 mg/kg/injection, schedule: Q01DX001 (ip), vehicle: saline); 104 % of control (dose: 25.0 mg/kg/injection, schedule: Q01DX001 (ip), vehicle: saline); 110 % of control (dose: 25.0 mg/kg/injection, schedule: Q01DX009 (ip), vehicle: saline); 100 % of control (dose: 25.0 mg/kg/injection, schedule: Q04DX003 (ip), vehicle: saline); 113 % of control (dose: 50.0 mg/kg/injection, schedule: Q01DX001 (ip), vehicle: saline); 100 % of control under setting [1]. The T/C is 95 % of control (dose: 50.0 mg/kg/injection, schedule: Q04DX003 (ip), vehicle: saline); 97 % of control under setting [2]; 97 % of control (dose: 100.0 mg/kg/injection, schedule: Q01DX009 (ip), vehicle: saline); 113 % of control under setting [3].
Consider `CCOC(=O)C(C(=O)OCC)C(C)c1ccc([N+](=O)[O-])cc1` (stereo not given), for which the T/C runs as follows: under setting [4], 106 % of control; (dose: 100.0 mg/kg/injection, schedule: Q04DX002 (ip), vehicle: saline with Tween-80) 100 % of control; under setting [5], 106 % of control; (dose: 200.0 mg/kg/injection, schedule: Q04DX002 (ip), vehicle: saline with Tween-80) 103 % of control; under setting [6], 113 % of control; (dose: 400.0 mg/kg/injection, schedule: Q04DX002 (ip), vehicle: saline with Tween-80) 92 % of control.
As to `O=C(O)CCC(=O)c1ccc(Br)cc1`, the T/C was 100 % of control under setting [7], 95 % of control under setting [8] and 101 % of control under setting [9].
Take `CNc1ccccc1C#N`: the T/C runs as follows: under setting [8], 102 % of control; under setting [10], 93 % of control; under setting [9], 98 % of control; under setting [11], 95 % of control; under setting [12], 109 % of control; under setting [13], 97 % of control.
On to `COC(=O)CCC(C)C1CCC2(C)C3=C(C(=O)CC12C)C1(C)CCC(O)C(C)(C)C1=C(O)C3` (stereo not given), for which the T/C is, setting by setting: under setting [3], 91 % of control; under setting [14], 93 % of control; under setting [15], 91 % of control.
Consider `CCc1cccc(CC)c1N1C(=O)C2C(C1=O)C1(Cl)C(Cl)=C(Cl)C2(Cl)C1(Cl)Cl` (stereo not given), for which the T/C reads like this: (dose: 25.0 mg/kg/injection, schedule: Q01DX009 (ip), vehicle: Klucel (hydroxypropylcellulose) (HPC)) 98 % of control; (dose: 25.0 mg/kg/injection, schedule: Q04DX003 (ip), vehicle: Klucel (hydroxypropylcellulose) (HPC)) 91 % of control; under setting [7], 102 % of control; under setting [16], 93 % of control; under setting [8], 105 % of control; under setting [10], 106 % of control and 88 % of control.
Consider `O=C(CCCl)N1CCN(C(=O)CCCl)c2ccccc21`, for which the T/C was 103 % of control under setting [17], 96 % of control under setting [18] and 96 % of control under setting [19].
For the molecule `CC1(C)COC(c2ccc3c(c2)OCO3)OC1`, the T/C runs as follows: under setting [17], 96 % of control; under setting [18], 97 % of control; under setting [19], 94 % of control.
On to `CC(C)OC(=O)NC1C=CC=CC=C1`, for which the T/C under setting [16] is 98 % of control, the T/C under setting [10] is 93 % of control, the T/C under setting [11] was 104 % of control and the T/C under setting [13] is 106 % of control.
In the case of `BrCCCCBr`, the T/C was 103 % of control under setting [2]; 100 % of control (dose: 200.0 mg/kg/injection, schedule: Q01DX001 (ip), vehicle: saline); 103 % of control (dose: 400.0 mg/kg/injection, schedule: Q01DX001 (ip), vehicle: saline).
For `NC(=O)c1cc(Cl)cc(N)c1Cl`, the T/C was 107 % of control (dose: 100.0 mg/kg/injection, schedule: Q01DX001 (ip), vehicle: saline with Tween-80); 104 % of control (dose: 200.0 mg/kg/injection, schedule: Q01DX001 (ip), vehicle: saline with Tween-80); 117 % of control (dose: 400.0 mg/kg/injection, schedule: Q01DX001 (ip), vehicle: saline with Tween-80).
Consider `Cc1ccc(S(=O)(=O)SC(Cl)(Cl)Cl)cc1`, for which, under setting [1], the T/C is 105 % of control.
With `CC1CSCC(C)O1` (stereo not given), the T/C was 95 % of control (dose: 50.0 mg/kg/injection, schedule: Q01DX009 (ip), vehicle: saline with Tween-80); 284 % of control under setting [4]; 95 % of control under setting [5].
In the case of `O=C1C(O)=C(Cl)C(=O)C(O)=C1Cl`, the T/C runs as follows: under setting [4], 106 % of control; under setting [3], 114 % of control; under setting [5], 95 % of control; under setting [14], 120 % of control; under setting [15], 116 % of control.
With `Cc1ccc(S(=O)(=O)Oc2ccc(N(CC(=O)O)S(=O)(=O)c3ccc(C)cc3)cc2)cc1`, the T/C by setting is: (dose: 100.0 mg/kg/injection, schedule: Q01DX001 (ip), vehicle: water) 98 % of control; (dose: 100.0 mg/kg/injection, schedule: Q04DX003 (ip), vehicle: water) 94 % of control; (dose: 200.0 mg/kg/injection, schedule: Q01DX001 (ip), vehicle: water) 96 % of control; (dose: 200.0 mg/kg/injection, schedule: Q04DX003 (ip), vehicle: water) 88 % of control; (dose: 400.0 mg/kg/injection, schedule: Q01DX001 (ip), vehicle: water) 97 % of control; (dose: 400.0 mg/kg/injection, schedule: Q04DX003 (ip), vehicle: water) 96 % of control.
For the molecule `CCCCC(=O)N1CCCCC1`, the T/C (dose: 50.0 mg/kg/injection, schedule: Q01DX001 (ip), vehicle: carboxymethylcellulose (CMC)) is 104 % of control; the T/C (dose: 50.0 mg/kg/injection, schedule: Q01DX009 (ip), vehicle: carboxymethylcellulose (CMC)) was 94 % of control and 97 % of control; the T/C (dose: 50.0 mg/kg/injection, schedule: Q04DX003 (ip), vehicle: carboxymethylcellulose (CMC)) is 102 % of control; the T/C under setting [17] is 106 % of control; the T/C (dose: 100.0 mg/kg/injection, schedule: Q01DX009 (ip), vehicle: carboxymethylcellulose (CMC)) is 94 % of control and 102 % of control; the T/C (dose: 100.0 mg/kg/injection, schedule: Q04DX002 (ip), vehicle: carboxymethylcellulose (CMC)) is 98 % of control. Also, the T/C runs as follows: (dose: 100.0 mg/kg/injection, schedule: Q04DX003 (ip), vehicle: carboxymethylcellulose (CMC)) 96 % of control; under setting [18], 101 % of control; (dose: 200.0 mg/kg/injection, schedule: Q01DX009 (ip), vehicle: carboxymethylcellulose (CMC)) 96 % of control and 87 % of control; (dose: 200.0 mg/kg/injection, schedule: Q04DX002 (ip), vehicle: carboxymethylcellulose (CMC)) 91 % of control; (dose: 200.0 mg/kg/injection, schedule: Q04DX003 (ip), vehicle: carboxymethylcellulose (CMC)) 97 % of control.
As to `CC(C)(C)[CH2][Sn]([CH2]C(C)(C)C)([CH2]C(C)(C)C)[c]1ccc(-c2ccccc2)cc1`, the T/C by setting is: (dose: 100.0 mg/kg/injection, schedule: Q04DX002 (ip), vehicle: Klucel (hydroxypropylcellulose) (HPC)) 111 % of control; (dose: 200.0 mg/kg/injection, schedule: Q04DX002 (ip), vehicle: Klucel (hydroxypropylcellulose) (HPC)) 92 % of control; (dose: 400.0 mg/kg/injection, schedule: Q04DX002 (ip), vehicle: Klucel (hydroxypropylcellulose) (HPC)) 92 % of control.
On to `CCN(CCOC(=O)Nc1ccccc1F)c1ccccc1`, for which the T/C by setting is: under setting [4], 98 % of control; under setting [5], 115 % of control; under setting [6], 112 % of control.
As for `Cc1cccc(Cl)c1NC(=O)c1ccc(C(=O)Nc2c(C)cccc2Cl)cc1`, the T/C by setting is: under setting [8], 87 % of control; under setting [9], 94 % of control; under setting [12], 94 % of control.
